In ChEMBL document CHEMBL3399937, “(18)F-AmBF3-MJ9: a novel radiofluorinated bombesin derivative for prostate cancer imaging” (Bioorg Med Chem, 2015):

Experiments:
[1] = system: Plasma; assay: Metabolic stability in mouse plasma after 0.5 to 2 hrs by HPLC analysis; format: ADME, cell-free
[2] = system: Blood; assay: Biodistribution in blood of NSG mouse xenografted with human PC-3 tumor at 0.37 to 0.74 MBq, iv after 0.5 hrs by gamma counting analysis; format: ADME, organism-based; settings: in vivo
[3] = Biodistribution in fat of NSG mouse xenografted with human PC-3 tumor at 0.37 to 0.74 MBq, iv after 0.5 hrs by gamma counting analysis; format: ADME, organism-based, Adipose tissue; settings: in vivo
[4] = system: Mus musculus; assay: Biodistribution in seminal gland of NSG mouse xenografted with human PC-3 tumor at 0.37 to 0.74 MBq, iv after 0.5 hrs by gamma counting analysis; format: ADME, organism-based; settings: in vivo
[5] = system: Mus musculus; assay: Biodistribution in testis of NSG mouse xenografted with human PC-3 tumor at 0.37 to 0.74 MBq, iv after 0.5 hrs by gamma counting analysis; format: ADME, organism-based; settings: in vivo
[6] = system: Intestine; assay: Biodistribution in intestine of NSG mouse xenografted with human PC-3 tumor at 0.37 to 0.74 MBq, iv after 0.5 hrs by gamma counting analysis; format: ADME, organism-based; settings: in vivo
[7] = system: Spleen; assay: Biodistribution in spleen of NSG mouse xenografted with human PC-3 tumor at 0.37 to 0.74 MBq, iv after 0.5 hrs by gamma counting analysis; format: ADME, organism-based; settings: in vivo
[8] = system: Liver; assay: Biodistribution in liver of NSG mouse xenografted with human PC-3 tumor at 0.37 to 0.74 MBq, iv after 0.5 hrs by gamma counting analysis; format: ADME, organism-based; settings: in vivo
[9] = system: Pancreas; assay: Biodistribution in pancreas of NSG mouse xenografted with human PC-3 tumor at 0.37 to 0.74 MBq, iv after 0.5 hrs by gamma counting analysis; format: ADME, organism-based; settings: in vivo
[10] = system: Mus musculus; assay: Biodistribution in adrenal gland of NSG mouse xenografted with human PC-3 tumor at 0.37 to 0.74 MBq, iv after 0.5 hrs by gamma counting analysis; format: ADME, organism-based; settings: in vivo
[11] = system: Kidney; assay: Biodistribution in kidney of NSG mouse xenografted with human PC-3 tumor at 0.37 to 0.74 MBq, iv after 0.5 hrs by gamma counting analysis; format: ADME, organism-based; settings: in vivo
[12] = system: Lung; assay: Biodistribution in lung of NSG mouse xenografted with human PC-3 tumor at 0.37 to 0.74 MBq, iv after 0.5 hrs by gamma counting analysis; format: ADME, organism-based; settings: in vivo
[13] = system: Heart; assay: Biodistribution in heart of NSG mouse xenografted with human PC-3 tumor at 0.37 to 0.74 MBq, iv after 0.5 hrs by gamma counting analysis; format: ADME, organism-based; settings: in vivo
[14] = system: Tumour; assay: Biodistribution in tumor of NSG mouse xenografted with human PC-3 tumor at 0.37 to 0.74 MBq, iv after 0.5 hrs by gamma counting analysis; format: ADME, organism-based, Neoplasm; settings: in vivo
[15] = system: Muscle tissue; assay: Biodistribution in muscle of NSG mouse xenografted with human PC-3 tumor at 0.37 to 0.74 MBq, iv after 0.5 hrs by gamma counting analysis; format: ADME, organism-based; settings: in vivo
[16] = system: Bone; assay: Biodistribution in bone of NSG mouse xenografted with human PC-3 tumor at 0.37 to 0.74 MBq, iv after 0.5 hrs by gamma counting analysis; format: ADME, organism-based, Bone element; settings: in vivo
[17] = system: Brain; assay: Biodistribution in brain of NSG mouse xenografted with human PC-3 tumor at 0.37 to 0.74 MBq, iv after 0.5 hrs by gamma counting analysis; format: ADME, organism-based; settings: in vivo
[18] = system: Blood; assay: Biodistribution in blood of NSG mouse xenografted with human PC-3 tumor at 0.37 to 0.74 MBq, iv after 1 hr by gamma counting analysis; format: ADME, organism-based; settings: in vivo
[19] = Biodistribution in fat of NSG mouse xenografted with human PC-3 tumor at 0.37 to 0.74 MBq, iv after 1 hr by gamma counting analysis; format: ADME, organism-based, Adipose tissue; settings: in vivo
[20] = system: Mus musculus; assay: Biodistribution in seminal gland of NSG mouse xenografted with human PC-3 tumor at 0.37 to 0.74 MBq, iv after 1 hr by gamma counting analysis; format: ADME, organism-based; settings: in vivo
[21] = system: Mus musculus; assay: Biodistribution in testis of NSG mouse xenografted with human PC-3 tumor at 0.37 to 0.74 MBq, iv after 1 hr by gamma counting analysis; format: ADME, organism-based; settings: in vivo
[22] = system: Intestine; assay: Biodistribution in intestine of NSG mouse xenografted with human PC-3 tumor at 0.37 to 0.74 MBq, iv after 1 hr by gamma counting analysis; format: ADME, organism-based; settings: in vivo
[23] = system: Spleen; assay: Biodistribution in spleen of NSG mouse xenografted with human PC-3 tumor at 0.37 to 0.74 MBq, iv after 1 hr by gamma counting analysis; format: ADME, organism-based; settings: in vivo
[24] = system: Liver; assay: Biodistribution in liver of NSG mouse xenografted with human PC-3 tumor at 0.37 to 0.74 MBq, iv after 1 hr by gamma counting analysis; format: ADME, organism-based; settings: in vivo
[25] = system: Pancreas; assay: Biodistribution in pancreas of NSG mouse xenografted with human PC-3 tumor at 0.37 to 0.74 MBq, iv after 1 hr by gamma counting analysis; format: ADME, organism-based; settings: in vivo
[26] = system: Mus musculus; assay: Biodistribution in adrenal gland of NSG mouse xenografted with human PC-3 tumor at 0.37 to 0.74 MBq, iv after 1 hr by gamma counting analysis; format: ADME, organism-based; settings: in vivo
[27] = system: Kidney; assay: Biodistribution in kidney of NSG mouse xenografted with human PC-3 tumor at 0.37 to 0.74 MBq, iv after 1 hr by gamma counting analysis; format: ADME, organism-based; settings: in vivo
[28] = system: Lung; assay: Biodistribution in lung of NSG mouse xenografted with human PC-3 tumor at 0.37 to 0.74 MBq, iv after 1 hr by gamma counting analysis; format: ADME, organism-based; settings: in vivo
[29] = system: Heart; assay: Biodistribution in heart of NSG mouse xenografted with human PC-3 tumor at 0.37 to 0.74 MBq, iv after 1 hr by gamma counting analysis; format: ADME, organism-based; settings: in vivo
[30] = system: Tumour; assay: Biodistribution in tumor of NSG mouse xenografted with human PC-3 tumor at 0.37 to 0.74 MBq, iv after 1 hr by gamma counting analysis; format: ADME, organism-based, Neoplasm; settings: in vivo
[31] = system: Muscle tissue; assay: Biodistribution in muscle of NSG mouse xenografted with human PC-3 tumor at 0.37 to 0.74 MBq, iv after 1 hr by gamma counting analysis; format: ADME, organism-based; settings: in vivo
[32] = system: Bone; assay: Biodistribution in bone of NSG mouse xenografted with human PC-3 tumor at 0.37 to 0.74 MBq, iv after 1 hr by gamma counting analysis; format: ADME, organism-based, Bone element; settings: in vivo
[33] = system: Brain; assay: Biodistribution in brain of NSG mouse xenografted with human PC-3 tumor at 0.37 to 0.74 MBq, iv after 1 hr by gamma counting analysis; format: ADME, organism-based; settings: in vivo

CC(C)C[C@H](NC(=O)C[C@H](O)[C@H](CC(C)C)NC(=O)[C@H](Cc1cnc[nH]1)NC(=O)CNC(=O)[C@@H](NC(=O)[C@H](C)NC(=O)[C@H](Cc1c[nH]c2ccccc12)NC(=O)[C@H](CCC(N)=O)NC(=O)[C@@H](Cc1ccccc1)NC(=O)CN1CCC(NC(=O)Cn2cc(C[N+](C)(C)C[B-](F)(F)[17F])nn2)CC1)C(C)C)C(N)=O
Stability [1]: Stable
Drug uptake [2]: 2.1 % ID/g
Drug uptake [3]: 0.25 % ID/g
Drug uptake [4]: 0.33 % ID/g
Drug uptake [5]: 0.42 % ID/g
Drug uptake [6]: 4.28 % ID/g
Drug uptake [7]: 1.08 % ID/g
Drug uptake [8]: 2.63 % ID/g
Drug uptake [9]: 8.04 % ID/g
Drug uptake [10]: 1.16 % ID/g
Drug uptake [11]: 6.6 % ID/g
Drug uptake [12]: 1.96 % ID/g
Drug uptake [13]: 0.54 % ID/g
Drug uptake [14]: 2.77 % ID/g
Drug uptake [15]: 0.38 % ID/g
Drug uptake [16]: 0.7 % ID/g
Drug uptake [17]: 0.07 % ID/g
Drug uptake [18]: 0.57 % ID/g
Drug uptake [19]: 0.07 % ID/g
Drug uptake [20]: 0.7 % ID/g
Drug uptake [21]: 0.25 % ID/g
Drug uptake [22]: 6.3 % ID/g
Drug uptake [23]: 0.33 % ID/g
Drug uptake [24]: 0.78 % ID/g
Drug uptake [25]: 4.16 % ID/g
Drug uptake [26]: 0.5 % ID/g
Drug uptake [27]: 2.43 % ID/g
Drug uptake [28]: 0.96 % ID/g
Drug uptake [29]: 0.13 % ID/g
Drug uptake [30]: 1.47 % ID/g
Drug uptake [31]: 0.07 % ID/g
Drug uptake [32]: 0.28 % ID/g
Drug uptake [33]: 0.02 % ID/g
